Data reported in BindingDB's records for patent US20250074895 (Blueprint Medicines, 2025).

Assays:
[1] = target: Cyclin-dependent kinase 2/G1/S-specific cyclin-E1 (Homo sapiens, UniProt P24941); assay: Biochemical CDK Inhibition Assay
Experimental: (§1) nhibitory effects of the compounds of the disclosure were measured in biochemical assays that measure the enzymatic phosphorylation activity of CDK enzyme in complex of Cyclin proteins phosphorylates 7.5 micromolar fluorescently labelled peptide substrate, 5-FAM-QSPKKG-CONH2, (FL-Peptide 18, Perkin Elmer, 760362) in the presence of adenosine-5′-triphosphate (ATP) and varying concentrations of the test compound in 100 mM 2-[4-(2-hydroxyethyl)piperazin-1-yl]ethanesulfonic acid (HEPES), pH 7.5, 10 mM MgCl2, 0.015% Brij-35, 1 mM dithiothreitol (DTT), 1.0% dimethylsulfoxide (DMSO). Assays were performed at 1.0 mM ATP or at ATP Km of the CDK enzymes in complex with Cyclin proteins. Reactions proceeded until between 10% to 20% total peptides were phosphorylated at room temperature (25° C.) and were terminated with 35 mM 2,2′,2″,2′″-(ethane-1,2-diyldinitrilo)tetraacetic acid (EDTA). Product was detected using the Caliper mobility shift detection method where the phosphorylated peptide (product) and substrate were electrophoretically separated and measured. Percent activity was plotted against log concentration of compound and points to generate an apparent IC50. The following CDK enzymes in complex with different cyclin proteins were used in these assays:CDK1/Cyclin B1, GST-tag (BPS, 40454), 1.5 nM used in the assayCDK2/Cyclin E (Eurofins, 14-475), 1.25 nM used in the assays

[2] = target: Cyclin-dependent kinase/G2/mitotic-specific cyclin- 1 (Homo sapiens, UniProt P06493); assay: Biochemical CDK Inhibition Assay
Experimental: as §1

Cyclin-dependent kinase/G2/mitotic-specific cyclin- 1, sequence (P06493 whole entry): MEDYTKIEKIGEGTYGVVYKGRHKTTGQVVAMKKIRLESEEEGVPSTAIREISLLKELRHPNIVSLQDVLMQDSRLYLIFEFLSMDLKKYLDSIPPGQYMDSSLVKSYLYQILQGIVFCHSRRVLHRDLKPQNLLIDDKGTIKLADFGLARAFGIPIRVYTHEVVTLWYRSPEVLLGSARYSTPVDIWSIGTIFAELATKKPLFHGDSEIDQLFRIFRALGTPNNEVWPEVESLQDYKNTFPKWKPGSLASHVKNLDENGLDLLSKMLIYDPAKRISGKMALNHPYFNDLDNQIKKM
Cyclin-dependent kinase/G2/mitotic-specific cyclin- 1, sequence (P14635 whole entry, further chain): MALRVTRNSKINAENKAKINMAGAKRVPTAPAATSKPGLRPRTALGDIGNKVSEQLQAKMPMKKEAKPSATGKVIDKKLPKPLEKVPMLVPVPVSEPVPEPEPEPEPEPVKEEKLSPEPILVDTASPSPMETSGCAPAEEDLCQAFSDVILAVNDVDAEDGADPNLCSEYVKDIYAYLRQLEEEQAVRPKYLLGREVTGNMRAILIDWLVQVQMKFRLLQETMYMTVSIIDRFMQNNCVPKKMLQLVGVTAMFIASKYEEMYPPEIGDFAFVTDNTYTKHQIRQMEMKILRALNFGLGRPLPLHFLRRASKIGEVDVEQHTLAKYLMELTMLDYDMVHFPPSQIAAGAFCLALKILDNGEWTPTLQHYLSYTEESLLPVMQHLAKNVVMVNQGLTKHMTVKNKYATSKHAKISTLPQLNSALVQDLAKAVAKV

SMILES	IC50 [1] [µM]	IC50 [2] [µM]
CC1(NC(=O)O[C@@H]2CC[C@H](c3cc(Nc4ccnc(C#N)n4)n[nH]3)C2)CC1 [US20250074895, Compound 3]	< 0.01	< 0.1
CC1(NC(=O)O[C@@H]2CC[C@H](c3cc(Nc4nccnn4)n[nH]3)C2)CC1 [US20250074895, Compound 42]	0.025	> 0.5
CC1(NC(=O)O[C@@H]2CC[C@H](c3cc(Nc4cnc(C(F)(F)F)cn4)n[nH]3)C2)CC1 [US20250074895, Compound 30]	< 0.01	0.3
CC1(C)CCN1C(=O)O[C@@H]1CC[C@H](c2cc(Nc3cnc(CO)cn3)n[nH]2)C1 [US20250074895, Compound 49]	< 0.01	< 0.1
CNc1nncc(Nc2cc([C@H]3CC[C@@H](OC(=O)NC4(C)CC4)C3)[nH]n2)n1 [US20250074895, Compound 23]	< 0.01	< 0.1
